Results as given in US20240122179A1, “AUXINIC HERBICIDES AND METHODS OF USE THEREOF” (CORTEVA AGRISCIENCE LLC, priority 2021, published 2024).
Where two headings read alike, the source gives them in different places.

Legend:
[1] = Volatility of compounds measured by thermogravimetric analysis (TGA), rate of weight loss; format: physicochemical; settings: estimates of volatility
From the text: Briefly, the rate of weight loss measured in units of […]g/min can be used to determine vapor pressure as shown by the simplified equation: wherein, k is the intrinsic volatility and A is the surface area, Referring now to FIG. 2. A graph of weight loss as function of time for solid samples produces a linear curve; the slope of the curve is the rate of weight loss. When this method is used to measure the volatility of aqueous salt concentrates or liquid concentrates, the water or acetone present in the sample volatilizes before the sample of interest. The first linear loss region of the curve is the loss of water or acetone and the second linear region is characteristic of the sample of interest. In order to illustrate the difference in volatility between some of the compounds disclosed herein and the widely used herbicide dicamba, data from both the compounds and dicamba are presented Table 3 and in FIG. 1.

[2] = system: Conyza canadensis (L.) (ERICA); experiment: Postemergence herbicide evaluation, percent reduction in plant size vs untreated control, 21 days after treatment; format: in vivo, Conyza canadensis (L.) (Horseweed); settings: Erigeron canadensis, post-emergence, 504 h, ERICA, postemergence, read-out: Control/Injury; for pest or weed control at 140 g/ha: rate 140 g ae/ha; for pest or weed control at 280 g/ha: rate 280 g ae/ha
Summary of the method: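 Track-sprayer applications (187 L/ha, 276 kPa) of 140 or 280 g ae/ha, technical material dissolved in acetone/DMSO then diluted with crop oil and surfactant-containing solvent, to greenhouse Conyza canadensis at 2-8 leaves. After 21 days, size reduction relative to untreated plants was recorded; 3-4 randomized replicates.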

[3] = system: Ambrosia artemisiifolia (AMBEL); experiment: as above; format: in vivo, Ambrosia artemisiifolia (common ragweed); settings: post-emergence, 504 h, AMBEL, postemergence, read-out: Control/Injury; for pest or weed control at 140 g/ha: rate 140 g ae/ha; for pest or weed control at 280 g/ha: rate 280 g ae/ha
Summary of the method: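 Test compounds at 140 or 280 g ae/ha were applied by track sprayer (187 L/ha, spray solution containing acetone/DMSO, isopropanol, crop oil, surfactant) to 2–8 leaf plants, 3–4 replicates. Plants were kept in a greenhouse at 25–28 °C. Size reduction was scored against untreated controls at 21 days.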

[4] = system: Kochia scoparia (KCHSC); experiment: as above; format: in vivo; settings: Bassia scoparia, post-emergence, 504 h, KCHSC, postemergence, read-out: Control/Injury; for pest or weed control at 140 g/ha: rate 140 g ae/ha; for pest or weed control at 280 g/ha: rate 280 g ae/ha
Summary of the method: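 Values are percent reduction in plant size against an untreated control, measured 21 days after a single postemergence spray at 140 or 280 g ae/ha (187 L/ha, 276 kPa). Treatments used 3-4 randomized complete-block replicates on 2 to 8 leaf-stage plants kept in a 25-28 °C greenhouse, with compounds in acetone/DMSO-based solvent containing crop oil and surfactant.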

[5] = system: Amaranthus palmeri (AMAPA); experiment: as above; format: in vivo, Amaranthus palmeri (Palmer amaranth); settings: post-emergence, 504 h, postemergence, read-out: Control/Injury; for pest or weed control at 140 g/ha: rate 140 g ae/ha; for pest or weed control at 280 g/ha: rate 280 g ae/ha
Summary of the method: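 Percent reduction in plant size relative to untreated plants, measured 21 days after track-sprayer application (187 L/ha) of 140 or 280 g ae/ha to Amaranthus palmeri at the 2 to 8 leaf stage. Randomized complete block, 3 or 4 replicates, greenhouse at 25 to 28° C; spray solution acetone/DMSO with isopropanol, water and crop oil concentrate.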

[6] = system: Amaranthus rudis (AMATA); experiment: as above; format: in vivo, Amaranthus rudis (tall water hemp); settings: Amaranthus tuberculatus, post-emergence, 504 h, AMATA, postemergence, read-out: Control/Injury; for pest or weed control at 140 g/ha: rate 140 g ae/ha; for pest or weed control at 280 g/ha: rate 280 g ae/ha
Summary of the method: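 Growth-reduction values are percent decrease in plant size relative to untreated plants, scored 21 days post-application. Amaranthus rudis (2-8 leaves) received postemergence sprays at 140 or 280 g ae/ha, 187 L/ha, in a mixed acetone/DMSO/water/isopropanol carrier with crop oil concentrate. Greenhouse conditions were 25-28° C, 50-60% RH; 3-4 randomized replicates.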

[7] = system: Glycine max; experiment: whole plant or invertebrate; settings: in vivo
Summary of the method: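 Greenhouse soybean (25–28 °C, 16 h light) sprayed post-emergence at 2–8 leaf stage with 140 or 280 g ae/ha in acetone/DMSO-based spray solution with crop oil concentrate, 187 L/ha by track sprayer; 3–4 replicates, randomized blocks. Plant size reduction versus untreated control measured 21 days after treatment.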

[8] = percent reduction vs untreated control, 21 days after treatment
[9] = R-AMAPA, percent reduction vs untreated control, 21 days after treatment
[10] = percent reduction vs untreated, 21 days after treatment

Volatility [1] [ng/min]	Structure (SMILES)	pest or weed control at 140 g/ha [2, 8] [%]	pest or weed control at 280 g/ha [2, 8] [%]	other results
0.0034	COc1c(Cl)ccc(Cl)c1C(=O)O/N=C(\N)c1ccc2ccoc2c1 [Compound A-26]	93	93	
0.015	COc1c(Cl)ccc(Cl)c1C(=O)O/N=C(\N)c1ccncc1 [Compound A-33]	87	93	
0.039	COc1c(Cl)ccc(Cl)c1C(=O)O/N=C(\N)c1ccccn1 [Compound A-34]	87	97	
0.022	COc1c(Cl)ccc(Cl)c1C(=O)O/N=C(\N)c1cncnc1 [Compound A-35]	96	99	
0.417	COc1c(Cl)ccc(Cl)c1C(=O)O/N=C(\N)c1cccs1 [Compound A-36]	83	98	
0.145	COc1c(Cl)ccc(Cl)c1C(=O)O/N=C(\N)c1ccsc1 [Compound A-37]	87	96	
0.46	COc1c(Cl)ccc(Cl)c1C(=O)O/N=C(\N)c1ccco1 [Compound A-38]	89	97	
0.73	COc1c(Cl)ccc(Cl)c1C(=O)OCc1cccnc1 [Compound A-45]			
0.1	COc1c(Cl)ccc(Cl)c1C(=O)O/N=C(\C)c1ccccc1 [Compound A-46]			pest or weed control at 140 g/ha [3]: 85%; pest or weed control at 280 g/ha [3]: 82%; pest or weed control at 140 g/ha [4]: 99%; pest or weed control at 280 g/ha [4]: 100%; pest or weed control at 140 g/ha [5, 9]: 85%; pest or weed control at 280 g/ha [5, 9]: 80%
0.24	COc1c(Cl)ccc(Cl)c1C(=O)OCCOCCOC(=O)c1c(Cl)ccc(Cl)c1OC [Compound A-55]			pest or weed control at 140 g/ha [3]: 25%; pest or weed control at 280 g/ha [4]: 15%
0.08	COc1c(Cl)ccc(Cl)c1C(=O)OCc1ccc(COC(=O)c2c(Cl)ccc(Cl)c2OC)cc1 [Compound A-56]			
0.11	COc1c(Cl)ccc(Cl)c1C(=O)O/N=C(\C)C/C(C)=N/OC(=O)c1c(Cl)ccc(Cl)c1OC [Compound A-58]			
0.086	COc1c(Cl)ccc(Cl)c1C(=O)O/N=C(\N)CC(C)C [Compound A-59]	94	99	
0.08	COc1c(Cl)ccc(Cl)c1C(=O)O/N=C(\N)c1ccccc1 [Compound A-150]			pest or weed control at 140 g/ha [4, 10]: 88%; pest or weed control at 280 g/ha [4, 10]: 99%; pest or weed control at 140 g/ha ([5]; AMAPA): 80%; pest or weed control at 280 g/ha ([5]; AMAPA): 78%; pest or weed control at 140 g/ha [2]: 98%; pest or weed control at 280 g/ha [2]: 97%; pest or weed control at 140 g/ha [2, 10]: 95%; pest or weed control at 280 g/ha [2, 10]: 98%

The remaining lines, values behind:

Structure (SMILES)	Volatility [1] [ng/min]	pest or weed control at 140 g/ha [2, 8] [%]	pest or weed control at 280 g/ha [2, 8] [%]	other results
COc1c(Cl)ccc(Cl)c1C(=O)O/N=C(\N)C1CCCCC1 [Compound A-6]	0.064	98	98	
COc1c(Cl)ccc(Cl)c1C(=O)O/N=C(\N)Cc1ccccc1 [Compound A-8]	0.189	98	99	
COc1c(Cl)ccc(Cl)c1C(=O)O/N=C(\N)c1ccccc1Cl [Compound A-13]	0.012			
COc1c(Cl)ccc(Cl)c1C(=O)O/N=C(\N)c1ccc(Cl)c(Cl)c1 [Compound A-14]	0.056			
COc1c(Cl)ccc(Cl)c1C(=O)O/N=C(\N)c1ccc(Cl)cc1Cl [Compound A-15]	0.0098	98	96	
COc1c(Cl)ccc(Cl)c1C(=O)O/N=C(\N)c1ccc(C)cc1 [Compound A-17]	0.026	94	95	
COc1ccc(/C(N)=N/OC(=O)c2c(Cl)ccc(Cl)c2OC)cc1 [Compound A-20]	0.04			
COc1ccccc1/C(N)=N/OC(=O)c1c(Cl)ccc(Cl)c1OC [Compound A-21]	0.074	95	98	
COc1c(Cl)ccc(Cl)c1C(=O)O/N=C(\N)c1ccc2ncccc2c1 [Compound A-25]	0.021	95	90	
COc1c(Cl)ccc(Cl)c1C(=O)O/N=C/c1cccc(/C=N/OC(=O)c2c(Cl)ccc(Cl)c2OC)c1 [Compound A-143]				pest or weed control at 140 g/ha [6]: 73%; pest or weed control at 280 g/ha [6]: 48%; pest or weed control at 140 g/ha [3]: 86%; pest or weed control at 280 g/ha [3]: 86%; pest or weed control at 140 g/ha [4, 10]: 88%; pest or weed control at 280 g/ha [4, 10]: 88%; pest or weed control at 140 g/ha [5, 9]: 70%; pest or weed control at 280 g/ha [5, 9]: 64%; pest or weed control at 140 g/ha [2, 10]: 80%; pest or weed control at 280 g/ha [2, 10]: 93%; Control/Injury [7]: 0
COc1c(Cl)ccc(Cl)c1C(=O)O/N=C(\N)CCC/C(N)=N/OC(=O)c1c(Cl)ccc(Cl)c1OC [Compound A-144]				pest or weed control at 140 g/ha [6]: 71%; pest or weed control at 280 g/ha [6]: 77%; pest or weed control at 140 g/ha [3]: 88%; pest or weed control at 280 g/ha [3]: 88%; pest or weed control at 140 g/ha [4, 10]: 89%; pest or weed control at 280 g/ha [4, 10]: 99%; pest or weed control at 140 g/ha [5, 9]: 59%; pest or weed control at 280 g/ha [5, 9]: 71%; pest or weed control at 140 g/ha [2, 10]: 83%; pest or weed control at 280 g/ha [2, 10]: 75%; Control/Injury [7]: 0
COc1c(Cl)ccc(Cl)c1C(=O)O/N=C(\N)CCCCC/C(N)=N/OC(=O)c1c(Cl)ccc(Cl)c1OC [Compound A-146]				pest or weed control at 140 g/ha [6]: 70%; pest or weed control at 280 g/ha [6]: 63%; pest or weed control at 140 g/ha [3]: 83%; pest or weed control at 280 g/ha [3]: 86%; pest or weed control at 140 g/ha [4, 10]: 89%; pest or weed control at 280 g/ha [4, 10]: 96%; pest or weed control at 140 g/ha [5, 9]: 43%; pest or weed control at 280 g/ha [5, 9]: 60%; pest or weed control at 140 g/ha [2, 10]: 73%; pest or weed control at 280 g/ha [2, 10]: 63%; Control/Injury [7]: 0
